From US12252524B2, “GIP/GLP1 co-agonist compounds” (Eli Lilly and Company, priority 2018, dated 2025)

How the values were obtained:
human Gcg receptor = target: T1, human Gcg receptor (Homo sapiens, UniProt P47871); test: [125I]-Glucagon binding (SPA), human Gcg receptor; conditions: read-out: hGLcgR Ki, nM (SEM, n)
T1 construct: expressed in transfected cells; crude membranes
In short: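 Crude membranes from cells expressing the receptor, prepared by hypotonic lysis in 50 mM Tris HCl pH 7.5 with protease inhibitors, homogenization and differential centrifugation, were used in a WGA-bead SPA. Binding buffer: 25 mM HEPES pH 7.4, 2.5 mM CaCl2, 1 mM MgCl2, bacitracin, Tween-20.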

human GLP-1R = human GLP-1R (Homo sapiens, UniProt P43220); test: [125I]-GLP-1 binding (SPA), human GLP-1 receptor; design: expressed in transfected cells; crude membranes; conditions: read-out: hGLP1R Ki, (nM) (SEM, n)
human GLP-1R, sequence (P43220 24-463): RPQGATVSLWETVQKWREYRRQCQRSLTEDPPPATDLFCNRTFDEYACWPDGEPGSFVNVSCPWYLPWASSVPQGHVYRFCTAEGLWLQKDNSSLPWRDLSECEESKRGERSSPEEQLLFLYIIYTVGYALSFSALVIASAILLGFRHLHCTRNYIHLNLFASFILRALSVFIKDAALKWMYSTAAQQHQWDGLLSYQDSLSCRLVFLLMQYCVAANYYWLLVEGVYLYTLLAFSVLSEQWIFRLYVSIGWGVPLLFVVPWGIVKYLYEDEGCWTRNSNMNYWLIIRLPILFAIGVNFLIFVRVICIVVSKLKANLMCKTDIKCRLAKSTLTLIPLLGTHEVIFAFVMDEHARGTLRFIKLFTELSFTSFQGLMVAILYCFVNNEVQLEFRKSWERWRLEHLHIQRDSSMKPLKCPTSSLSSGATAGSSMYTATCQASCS
In short: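 Frozen cell pellets are lysed on ice in hypotonic Tris buffer, pH 7.5, homogenized, and centrifuged to a membrane pellet resuspended at about 1 to 3 mg/mL. Binding is then measured in HEPES-based buffer at pH 7.4, and curves are fitted to give IC50 and Ki.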

[1] = target: human GLP-1 receptor (GLP-1R) (Homo sapiens, UniProt P43220); test: cAMP pharmacological functional assay in presence of casein, hGLP-1R; format: cell-based; conditions: HEK293 cells expressing hGLP-1R, 0.1% Casein, geometric mean; read-out: hGLP1R cAMP Rel EC50 nM (SEM, n)
human GLP-1 receptor (GLP-1R), sequence (P43220 24-463): as above

human GIP receptor = target: T2, human GIP receptor (Homo sapiens, UniProt P48546); test: [125I]-GIP binding (SPA), human GIP receptor; conditions: read-out: hGIPR Ki, nM (SEM, n)
T2 construct: expressed in transfected cells; crude membranes
T2 sequence (P48546 22-466): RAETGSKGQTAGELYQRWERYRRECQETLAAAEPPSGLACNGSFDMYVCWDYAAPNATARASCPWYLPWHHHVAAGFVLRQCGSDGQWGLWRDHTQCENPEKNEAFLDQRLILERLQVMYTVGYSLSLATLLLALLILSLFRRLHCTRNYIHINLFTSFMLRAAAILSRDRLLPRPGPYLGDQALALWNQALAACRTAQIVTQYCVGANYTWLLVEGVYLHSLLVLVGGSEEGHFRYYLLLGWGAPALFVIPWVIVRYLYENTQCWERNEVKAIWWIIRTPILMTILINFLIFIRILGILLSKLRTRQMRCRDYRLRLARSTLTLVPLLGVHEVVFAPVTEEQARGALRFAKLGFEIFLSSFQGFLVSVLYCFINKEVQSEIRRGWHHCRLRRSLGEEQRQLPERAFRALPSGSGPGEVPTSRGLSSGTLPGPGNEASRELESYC

[2] = target: T3, gastric inhibitory peptide receptor (GIPR) (Homo sapiens, UniProt P48546); test: cAMP pharmacological functional assay in presence of casein, hGIPR; format: cell-based; conditions: HEK293 cells expressing hGIPR, 0.1% Casein, geometric mean; read-out: hGIPR cAMP Rel EC50 nM (SEM, n)
T3 sequence (P48546 22-466): T2 sequence (P48546 22-466)

T1 sequence (P47871 26-477): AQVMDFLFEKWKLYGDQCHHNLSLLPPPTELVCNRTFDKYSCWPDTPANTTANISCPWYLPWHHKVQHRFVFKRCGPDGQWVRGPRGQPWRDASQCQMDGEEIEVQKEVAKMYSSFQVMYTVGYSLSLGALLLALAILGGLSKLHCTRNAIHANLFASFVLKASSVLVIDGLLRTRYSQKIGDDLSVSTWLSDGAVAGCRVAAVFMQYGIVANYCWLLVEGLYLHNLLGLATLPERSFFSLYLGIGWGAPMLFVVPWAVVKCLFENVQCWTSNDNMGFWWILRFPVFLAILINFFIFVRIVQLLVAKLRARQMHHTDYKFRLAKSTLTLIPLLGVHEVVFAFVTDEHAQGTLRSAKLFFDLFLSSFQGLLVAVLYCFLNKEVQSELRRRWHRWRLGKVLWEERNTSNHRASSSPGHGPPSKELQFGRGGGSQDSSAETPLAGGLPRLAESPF

SMILES	Ki (human Gcg receptor) [nM]	Ki (human GLP-1R) [nM]	EC50 [1] [nM]	Ki (human GIP receptor) [nM]	EC50 [2] [nM]
CC[C@H](C)[C@H](NC(=O)[C@H](Cc1ccccc1)NC(=O)[C@H](C)NC(=O)C(C)(C)NC(=O)[C@H](CCC(N)=O)NC(=O)[C@H](C)NC(=O)[C@H](CCCCNC(=O)COCCOCCNC(=O)COCCOCCNC(=O)CC[C@H](NC(=O)CCCCCCCCCCCCCCCCCCC(=O)O)C(=O)O)NC(=O)[C@H](CCCCN)NC(=O)[C@H](CC(=O)O)NC(=O)[C@H](CC(C)C)NC(=O)[C@](C)(CC(C)C)NC(=O)[C@@H](NC(=O)[C@H](CO)NC(=O)[C@H](Cc1ccc(O)cc1)NC(=O)[C@H](CC(=O)O)NC(=O)[C@H](CO)NC(=O)[C@@H](NC(=O)[C@H](Cc1ccccc1)NC(=O)[C@@H](NC(=O)CNC(=O)[C@H](CCC(=O)O)NC(=O)C(C)(C)NC(=O)[C@@H](N)Cc1ccc(O)cc1)[C@@H](C)O)[C@@H](C)O)[C@@H](C)CC)C(=O)N[C@@H](CCC(=O)O)C(=O)N[C@@H](Cc1ccc(O)cc1)C(=O)N[C@@](C)(CC(C)C)C(=O)N[C@H](C(=O)N[C@@H](CCC(=O)O)C(=O)NCC(=O)NCC(=O)N1CCC[C@H]1C(=O)N[C@@H](CO)C(=O)N[C@@H](CO)C(=O)NCC(=O)N[C@@H](C)C(=O)N1CCC[C@H]1C(=O)N1CCC[C@H]1C(=O)N1CCC[C@H]1C(=O)N[C@@H](CO)C(N)=O)[C@@H](C)CC [Example 75]	283	24.4	1.49	0.103	0.214
CC[C@H](C)[C@H](NC(=O)[C@H](CC(C)C)NC(=O)[C@H](Cc1ccc(O)cc1)NC(=O)[C@H](CCC(=O)O)NC(=O)[C@@H](NC(=O)[C@](C)(Cc1ccccc1)NC(=O)[C@H](C)NC(=O)C(C)(C)NC(=O)[C@H](CCC(N)=O)NC(=O)[C@H](C)NC(=O)[C@H](CCCCNC(=O)COCCOCCNC(=O)COCCOCCNC(=O)CC[C@H](NC(=O)CCCCCCCCCCCCCCCCCCC(=O)O)C(=O)O)NC(=O)[C@H](CCCCN)NC(=O)[C@H](CC(=O)O)NC(=O)[C@H](CC(C)C)NC(=O)[C@](C)(CC(C)C)NC(=O)[C@@H](NC(=O)[C@H](CO)NC(=O)[C@H](Cc1ccc(O)cc1)NC(=O)[C@H](CC(=O)O)NC(=O)[C@H](CO)NC(=O)[C@@H](NC(=O)[C@](C)(Cc1ccccc1)NC(=O)[C@@H](NC(=O)CNC(=O)[C@H](CCC(=O)O)NC(=O)C(C)(C)NC(=O)[C@@H](N)Cc1ccc(O)cc1)[C@@H](C)O)[C@@H](C)O)[C@@H](C)CC)[C@@H](C)CC)C(=O)N[C@@H](CCC(=O)O)C(=O)NCC(=O)NCC(=O)N1CCC[C@H]1C(=O)N[C@@H](CO)C(=O)N[C@@H](CO)C(=O)NCC(=O)N[C@@H](C)C(=O)N1CCC[C@H]1C(=O)N1CCC[C@H]1C(=O)N1CCC[C@H]1C(=O)N[C@@H](CO)C(N)=O [Example 76]	14.4	2.64	0.125	0.0659	0.124
CC[C@H](C)[C@H](NC(=O)[C@H](CC(C)C)NC(=O)[C@H](Cc1ccc(O)cc1)NC(=O)[C@H](CCC(=O)O)NC(=O)[C@@H](NC(=O)[C@H](Cc1ccccc1)NC(=O)[C@H](C)NC(=O)C(C)(C)NC(=O)[C@H](CCC(N)=O)NC(=O)[C@H](C)NC(=O)[C@H](CCCCNC(=O)COCCOCCNC(=O)COCCOCCNC(=O)CC[C@H](NC(=O)CCCCCCCCCCCCCCCCCCC(=O)O)C(=O)O)NC(=O)[C@H](CCCCN)NC(=O)[C@H](CC(=O)O)NC(=O)[C@H](CC(C)C)NC(=O)[C@H](CC(C)C)NC(=O)[C@@H](NC(=O)[C@H](CO)NC(=O)[C@H](Cc1ccc(O)cc1)NC(=O)[C@H](CC(=O)O)NC(=O)[C@H](CO)NC(=O)[C@@H](NC(=O)[C@H](Cc1ccccc1)NC(=O)[C@@H](NC(=O)CNC(=O)[C@H](CCC(=O)O)NC(=O)C(C)(C)NC(=O)[C@H](N)Cc1ccc(O)cc1)[C@@H](C)O)[C@@H](C)O)[C@@H](C)CC)[C@@H](C)CC)C(=O)N[C@@H](CCC(=O)O)C(=O)NCC(=O)NCC(=O)N1CCC[C@H]1C(=O)N[C@@H](CO)C(=O)N[C@@H](CO)C(=O)NCC(=O)N[C@@H](C)C(=O)N1CCC[C@H]1C(=O)N1CCC[C@H]1C(=O)N1CCC[C@H]1C(=O)N[C@@H](CO)C(N)=O [Example 78]	215	3.94	0.544	0.163	0.532
CC[C@H](C)[C@H](NC(=O)[C@H](CC(C)C)NC(=O)[C@H](Cc1ccc(O)cc1)NC(=O)[C@H](CCC(=O)O)NC(=O)[C@@H](NC(=O)[C@H](Cc1ccccc1)NC(=O)[C@H](C)NC(=O)C(C)(C)NC(=O)[C@H](CCC(N)=O)NC(=O)[C@H](C)NC(=O)[C@H](CCCCNC(=O)COCCOCCNC(=O)COCCOCCNC(=O)CC[C@H](NC(=O)CCCCCCCCCCCCCCCCCCC(=O)O)C(=O)O)NC(=O)[C@H](CCCCN)NC(=O)[C@H](CC(=O)O)NC(=O)[C@H](CC(C)C)NC(=O)[C@H](CC(C)C)NC(=O)[C@@H](NC(=O)[C@H](CO)NC(=O)[C@H](Cc1ccc(O)cc1)NC(=O)[C@H](CC(=O)O)NC(=O)[C@H](CO)NC(=O)[C@@H](NC(=O)[C@H](Cc1ccccc1)NC(=O)[C@@H](NC(=O)CNC(=O)[C@H](CCC(=O)O)NC(=O)[C@H](C)NC(=O)[C@@H](Cc1ccc(O)cc1)NC(C)=O)[C@@H](C)O)[C@@H](C)O)[C@@H](C)CC)[C@@H](C)CC)C(=O)N[C@@H](CCC(=O)O)C(=O)NCC(=O)NCC(=O)N1CCC[C@H]1C(=O)N[C@@H](CO)C(=O)N[C@@H](CO)C(=O)NCC(=O)N[C@@H](C)C(=O)N1CCC[C@H]1C(=O)N1CCC[C@H]1C(=O)N1CCC[C@H]1C(=O)N[C@@H](CO)C(N)=O [Example 79]	429	2.69	2.02	0.0313	0.0732
CC[C@H](C)[C@H](NC(=O)[C@H](CC(C)C)NC(=O)[C@H](Cc1ccc(O)cc1)NC(=O)[C@H](CCC(=O)O)NC(=O)[C@@H](NC(=O)[C@H](Cc1ccccc1)NC(=O)[C@H](C)NC(=O)C(C)(C)NC(=O)[C@H](CCC(N)=O)NC(=O)[C@H](C)NC(=O)[C@H](CCCCNC(=O)COCCOCCNC(=O)COCCOCCNC(=O)CC[C@H](NC(=O)CCCCCCCCCCCCCCCCCCC(=O)O)C(=O)O)NC(=O)[C@H](CCCCN)NC(=O)[C@H](CC(=O)O)NC(=O)[C@H](CC(C)C)NC(=O)[C@H](CC(C)C)NC(=O)[C@@H](NC(=O)[C@@H](CO)NC(=O)[C@H](Cc1ccc(O)cc1)NC(=O)[C@H](CC(=O)O)NC(=O)[C@H](CO)NC(=O)[C@@H](NC(=O)[C@H](Cc1ccccc1)NC(=O)[C@@H](NC(=O)CNC(=O)[C@H](CCC(=O)O)NC(=O)C(C)(C)NC(=O)[C@@H](N)Cc1ccc(O)cc1)[C@@H](C)O)[C@@H](C)O)[C@@H](C)CC)[C@@H](C)CC)C(=O)N[C@@H](CCC(=O)O)C(=O)NCC(=O)NCC(=O)N1CCC[C@H]1C(=O)N[C@@H](CO)C(=O)N[C@@H](CO)C(=O)NCC(=O)N[C@@H](C)C(=O)N1CCC[C@H]1C(=O)N1CCC[C@H]1C(=O)N1CCC[C@H]1C(=O)N[C@@H](CO)C(N)=O [Example 81]	344	2.88	1.29	0.198	0.428
CC[C@@H](C)[C@@H](NC(=O)[C@H](CO)NC(=O)[C@H](Cc1ccc(O)cc1)NC(=O)[C@H](CC(=O)O)NC(=O)[C@H](CO)NC(=O)[C@@H](NC(=O)[C@H](Cc1ccccc1)NC(=O)[C@@H](NC(=O)CNC(=O)[C@H](CCC(=O)O)NC(=O)C(C)(C)NC(=O)[C@@H](N)Cc1ccc(O)cc1)[C@@H](C)O)[C@@H](C)O)C(=O)N[C@@H](CC(C)C)C(=O)N[C@@H](CC(C)C)C(=O)N[C@@H](CC(=O)O)C(=O)N[C@@H](CCCCN)C(=O)N[C@@H](CCCCNC(=O)COCCOCCNC(=O)COCCOCCNC(=O)CC[C@H](NC(=O)CCCCCCCCCCCCCCCCCCC(=O)O)C(=O)O)C(=O)N[C@@H](C)C(=O)N[C@@H](CCC(N)=O)C(=O)NC(C)(C)C(=O)N[C@@H](C)C(=O)N[C@@H](Cc1ccccc1)C(=O)N[C@H](C(=O)N[C@@H](CCC(=O)O)C(=O)N[C@@H](Cc1ccc(O)cc1)C(=O)N[C@@H](CC(C)C)C(=O)N[C@H](C(=O)N[C@@H](CCC(=O)O)C(=O)NCC(=O)NCC(=O)N1CCC[C@H]1C(=O)N[C@@H](CO)C(=O)N[C@@H](CO)C(=O)NCC(=O)N[C@@H](C)C(=O)N1CCC[C@H]1C(=O)N1CCC[C@H]1C(=O)N1CCC[C@H]1C(=O)N[C@@H](CO)C(N)=O)[C@@H](C)CC)[C@@H](C)CC [Example 82]	> 1060	6.82	26.1	14.9	24.3
